Patent US9144239B2, “Macrocyclic picolinamides as fungicides” (DOW AGROSCIENCES LLC, priority 2012, dated 2015)

Legend:
Type in all cases: in vivo
[1] = test system: Cercospora beticola; assay: Fungicidal activity: leaf spot of sugar beets (CERCBE); conditions: 24 h, 1 Day Protectant, sugar beet, read-out: Disease Control CERCBE 1DP
Protocol: Technical grades of materials were dissolved in acetone, which were then mixed with nine volumes of water containing 110 ppm Triton X-100. The fungicide solutions were applied onto wheat seedlings using an automated booth sprayer to run-off. All sprayed plants were allowed to air dry prior to further handling. Wheat plants (variety Yuma) were grown from seed in a greenhouse in 50% mineral soil/50% soil-less Metro mix until the first leaf was fully emerged, with 7-10 seedlings per pot. These plants were inoculated with an aqueous spore suspension of Septoria tritici either prior to or after fungicide treatments. After inoculation the plants were kept in 100% relative humidity (one day in a dark dew chamber followed by two to three days in a lighted dew chamber at 20° C.) to permit spores to germinate and infect the leaf. The plants were then transferred to a greenhouse set at 20° C. for disease to develop. When disease symptoms were fully expressed on the 1st leaves of untreated plants, infection levels were assessed on a scale of 0 to 100 percent disease severity. Percent disease control was calculated using the ratio of disease severity on treated plants relative to untreated plants. Evaluation of Fungicidal Activity: Leaf Spot of Sugar Beets (Cercospora beticola; Bayer Code CERCBE) Sugar beet plants (variety HH88) were grown in soil-less Metro mix and trimmed regularly to maintain a uniform plant size prior to test. Plants were inoculated with a spore suspension 24 hr after fungicide treatments. Inoculated plants were kept in a dew chamber at 22° C. for 48 hr then incubated in a greenhouse set at 24° C. under a clear plastic hood with bottom ventilation until disease symptoms were fully expressed. Fungicide formulation, application and disease assessment on the sprayed leaves followed the procedures as described in the Example A.

[2] = test system: Blumeria graminis f.sp. tritici; synonym: Erysiphe graminis f.sp. tritici; assay: Fungicidal activity: wheat powdery mildew (ERYSGT); conditions: 24 h, 1 Day Protectant, read-out: Disease Control ERYSGT 1 DP
Protocol: Technical grades of materials were dissolved in acetone, which were then mixed with nine volumes of water containing 110 ppm Triton X-100. The fungicide solutions were applied onto wheat seedlings using an automated booth sprayer to run-off. All sprayed plants were allowed to air dry prior to further handling. Wheat plants (variety Yuma) were grown from seed in a greenhouse in 50% mineral soil/50% soil-less Metro mix until the first leaf was fully emerged, with 7-10 seedlings per pot. These plants were inoculated with an aqueous spore suspension of Septoria tritici either prior to or after fungicide treatments. After inoculation the plants were kept in 100% relative humidity (one day in a dark dew chamber followed by two to three days in a lighted dew chamber at 20° C.) to permit spores to germinate and infect the leaf. The plants were then transferred to a greenhouse set at 20° C. for disease to develop. When disease symptoms were fully expressed on the 1st leaves of untreated plants, infection levels were assessed on a scale of 0 to 100 percent disease severity. Percent disease control was calculated using the ratio of disease severity on treated plants relative to untreated plants. Evaluation of Fungicidal Activity: Wheat Powdery Mildew (Blumeria graminis f.sp. tritici; Synonym: Erysiphe graminis f.sp. tritici; Bayer Code […]) Wheat plants (variety Yuma) were grown from seed in a greenhouse in 50% mineral soil/50% soil-less Metro mix until the first leaf was fully emerged, with 7-10 seedlings per pot. These plants were inoculated by dusting with infected stock plants 24 hr after fungicide treatments. After inoculation the plants were kept in a greenhouse set at 20° C. for disease to develop. Fungicide formulation, application and disease assessment on the sprayed leaves followed the procedures as described in the Example A.

[3] = test system: Blumeria graminis f.sp. hordei; synonym: Erysiphe graminis f.sp. hordei; assay: Fungicidal activity: barley powdery mildew (ERYSGH); conditions: 24 h, 1 Day Protectant, read-out: Disease Control ERYSGH 1DP
Protocol: Technical grades of materials were dissolved in acetone, which were then mixed with nine volumes of water containing 110 ppm Triton X-100. The fungicide solutions were applied onto wheat seedlings using an automated booth sprayer to run-off. All sprayed plants were allowed to air dry prior to further handling. Wheat plants (variety Yuma) were grown from seed in a greenhouse in 50% mineral soil/50% soil-less Metro mix until the first leaf was fully emerged, with 7-10 seedlings per pot. These plants were inoculated with an aqueous spore suspension of Septoria tritici either prior to or after fungicide treatments. After inoculation the plants were kept in 100% relative humidity (one day in a dark dew chamber followed by two to three days in a lighted dew chamber at 20° C.) to permit spores to germinate and infect the leaf. The plants were then transferred to a greenhouse set at 20° C. for disease to develop. When disease symptoms were fully expressed on the 1st leaves of untreated plants, infection levels were assessed on a scale of 0 to 100 percent disease severity. Percent disease control was calculated using the ratio of disease severity on treated plants relative to untreated plants. Evaluation of Fungicidal Activity: Barley Powdery Mildew (Blumeria graminis f.sp. hordei; Synonym: Erysiphe graminis f.sp. hordei; Bayer Code […]) Barley seedlings (variety Harrington) were propagated in soil-less Metro mix, with each pot having 8 to 12 plants, and used in the test when first leaf was fully emerged. Test plants were inoculated by dusting with infected stock plants 24 hr after fungicide treatments. After inoculation the plants were kept in a greenhouse set at 20° C. for disease to develop. Fungicide formulation, application and disease assessment on the sprayed leaves followed the procedures as described in the Example A.

[4] = test system: Magnaporthe grisea; anamorph: Pyricularia oryzae; assay: whole plant or invertebrate; conditions: 24 h, read-out: Disease Control PYRIOR 1 DP
[5] = test system: Glomerella lagenarium; anamorph: Colletotrichum lagenarium; assay: Fungicidal activity: cucumber anthracnose (COLLLA); conditions: Colletotrichum orbiculare, 24 h, 1 Day Protectant, read-out: Disease Control COLLLA 1DP
Protocol: Technical grades of materials were dissolved in acetone, which were then mixed with nine volumes of water containing 110 ppm Triton X-100. The fungicide solutions were applied onto wheat seedlings using an automated booth sprayer to run-off. All sprayed plants were allowed to air dry prior to further handling. Wheat plants (variety Yuma) were grown from seed in a greenhouse in 50% mineral soil/50% soil-less Metro mix until the first leaf was fully emerged, with 7-10 seedlings per pot. These plants were inoculated with an aqueous spore suspension of Septoria tritici either prior to or after fungicide treatments. After inoculation the plants were kept in 100% relative humidity (one day in a dark dew chamber followed by two to three days in a lighted dew chamber at 20° C.) to permit spores to germinate and infect the leaf. The plants were then transferred to a greenhouse set at 20° C. for disease to develop. When disease symptoms were fully expressed on the 1st leaves of untreated plants, infection levels were assessed on a scale of 0 to 100 percent disease severity. Percent disease control was calculated using the ratio of disease severity on treated plants relative to untreated plants. Evaluation of Fungicidal Activity: Cucumber Anthracnose (Glomerella lagenarium; Anamorph: Colletotrichum lagenarium; Bayer Code COLLLA) Cucumber seedlings (variety Bush Pickle) were propagated in soil-less Metro mix, with each pot having one plant, and used in the test when 12 to 14 days old. Test plants were inoculated with an aqueous spore suspension of Colletotrichum lagenarium 24 hr after fungicide treatments. After inoculation the plants were kept in a dew room at 22° C. with 100% relative humidity for 48 hr to permit spores to germinate and infect the leaf. The plants were then transferred to a growth room set at 22° C. for disease to develop. Fungicide formulation, application and disease assessment on the sprayed leaves followed the procedures as described in the Example A.

## COc1ccnc(C(=O)N[C@H]2COC[C@H](Oc3ccccc3)[C@@H](OCC(C)C)[C@H](C)OC2=O)c1OCOC(C)=O [Compound 86]
[1]
  pest or weed control at 100 ppm: 80 to 100%
[2]
  pest or weed control at 100 ppm: 80 to 100%
[3]
  pest or weed control at 100 ppm: 0 to 80%
[4]
  pest or weed control at 100 ppm: 80 to 100%
[5]
  pest or weed control at 100 ppm: 80 to 100%
